{"source": "paper PMC11913021", "about": "(Journal of Medicinal Chemistry, 2024)", "target": "T1, F789A mutant PLD1 (Homo sapiens, UniProt Q13393, F827A)", "T1 sequence (Q13393 1-1036 isoform Q13393-2 F789A)": "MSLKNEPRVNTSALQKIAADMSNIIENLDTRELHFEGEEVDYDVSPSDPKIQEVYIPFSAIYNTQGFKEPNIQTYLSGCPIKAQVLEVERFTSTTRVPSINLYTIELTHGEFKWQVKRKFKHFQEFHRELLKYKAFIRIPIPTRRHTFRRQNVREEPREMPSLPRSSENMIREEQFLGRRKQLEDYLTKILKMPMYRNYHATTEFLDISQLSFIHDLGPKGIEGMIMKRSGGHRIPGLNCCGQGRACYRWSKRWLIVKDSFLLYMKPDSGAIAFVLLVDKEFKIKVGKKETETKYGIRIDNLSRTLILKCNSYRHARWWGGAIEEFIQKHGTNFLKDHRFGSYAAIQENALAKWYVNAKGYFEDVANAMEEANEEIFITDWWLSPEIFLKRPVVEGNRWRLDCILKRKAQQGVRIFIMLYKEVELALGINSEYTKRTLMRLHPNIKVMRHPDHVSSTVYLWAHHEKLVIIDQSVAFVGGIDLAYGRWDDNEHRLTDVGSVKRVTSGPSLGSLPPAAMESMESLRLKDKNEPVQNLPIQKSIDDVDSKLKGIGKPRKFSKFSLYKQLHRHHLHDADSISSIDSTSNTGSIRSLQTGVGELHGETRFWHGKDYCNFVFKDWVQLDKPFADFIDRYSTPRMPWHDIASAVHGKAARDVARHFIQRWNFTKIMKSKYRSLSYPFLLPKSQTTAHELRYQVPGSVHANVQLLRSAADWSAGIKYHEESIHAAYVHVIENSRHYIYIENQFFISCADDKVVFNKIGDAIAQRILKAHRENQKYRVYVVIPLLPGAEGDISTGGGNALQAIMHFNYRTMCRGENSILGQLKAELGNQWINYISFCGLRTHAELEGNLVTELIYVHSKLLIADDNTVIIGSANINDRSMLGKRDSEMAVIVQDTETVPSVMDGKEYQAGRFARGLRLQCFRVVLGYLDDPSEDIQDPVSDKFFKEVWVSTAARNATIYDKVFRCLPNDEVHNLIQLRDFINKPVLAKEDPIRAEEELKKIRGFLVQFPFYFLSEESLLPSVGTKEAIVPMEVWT", "test": "PLD activity assay in F789A mutant PLD1-transfected cells", "type": "cell-based"}
{"substance": "N-(3,5-Bis(trifluoromethyl)phenyl)-3-(1H-indol-3-yl)propanamide [3r]", "values": [{"measurement": "PLD activity", "result": "did not significantly inhibit"}]}
